Experimental data reported in paper PMC8308845, “Discovery of Novel Chemical Series of OXA-48 β-Lactamase Inhibitors by High-Throughput Screening” (Pharmaceuticals, 2021).
“And” between values parts separate entries of the source, which are not always exact repeats. Equal entries are not always repeated.

Key:
OXA-48 = target: T1, OXA-48 (Klebsiella pneumoniae, UniProt Q6XEC0); assay: OXA-48 primary enzymatic assay (nitrocefin substrate, fluorescence-quenching readout); type: biochemical; conditions: dose–response, median of triplicate wells; 15 min preincubation, 25 µM nitrocefin
T1 construct: made in house; host or cells: E. coli BL21(DE3), T7 expression system
Description: After an initial pilot run (three plates, consisting of 960 randomly selected compounds), the primary screening of the subset plates was carried out at 20 µM in single point against OXA-48 enzyme in a nitrocefin-based assay, using the fluorescence-quenching readout. This enzymatic assay employs the cephalosporin nitrocefin as OXA-48 substrate and takes advantage of the fluorescent properties of white microtiter plates. Chromogenic nitrocefin is hydrolyzed by β-lactamases to yield a product with increased absorbance properties (~495 nm) that quenches the plate fluorescence by absorbing the plate’s emission light. In this assay, test compounds that inhibit OXA-48 catalytic activity are predicted to reduce nitrocefin quenching of plate fluorescence, resulting in a quantitative increase in well fluorescence (ON-system for inhibitors). The nitrocefin-based epi-absorbance readout system has been successfully applied in HTS campaigns on other β-lactamases, such as IMP-1 and VIM-2, with the identification of inhibitors belonging to novel scaffolds displaying a favourable degree of selectivity and sub-micromolar potency.
The screening results were expressed as activity percent. […] Overall, the primary assay robustness was good, with Robust Z Prime factor (RZ′) equal to 0.86.
In total, 256 active molecules (125 from the subset and 131 from the full set) were then assayed in dose–response at eight concentrations from 60 to 0.002 µM with interplate triplicate data points.
The blaOXA gene coding for the OXA-48 ß-lactamase, originally cloned from the K. pneumonia 11978 (a clinical isolate from Istanbul Faculty Hospital, Istanbul, Turkey) was overexpressed via a T7 expression system in E. coli BL21(DE3), and its product, native protein, (final yield of 30 mg/L of culture) was subjected to several purification steps, including ion-exchange chromatography with Q-Sepharose and 20 mM Tris-HCl buffer (pH 9.0), followed by chromatography with S-Sepharose columns and 100 mM sodium phosphate buffer (pH 5.8). Elution of the beta-lactamase was performed with a K2SO4 gradient. Peaks of beta-lactamase activity were concentrated and were dialyzed with 100 mM phosphate buffer (pH 7.0). The OXA-48 enzyme was purified to homogeneity (with a degree of purity around 95.4%.)-as measured by 12% SDS PAGE [23]. OXA-48 protein stock solution (2 mg/mL) was finally prepared in 20 mM Hepes (pH 8,1). OXA-48 β-lactamase specific activity was measured by following the hydrolysis of 100 μM nitrocefin (ε: 17,000 M-1 cm^−1 at 482 nm; Δε: 15,000 M-1 cm^−1 at 482 nm) and corresponding to 60.45 μmoles min^−1 mg^−1 of OXA-48 (kcat = 28.85 s^−1) enzyme. A MW of 28,147 g/mol, calculated from the enzyme sequence was confirmed by MALDI-TOF analysis with a Mass error of ± 2.8 Da.
The primary assay was developed to monitor the enzymatic activity of OXA-48 taking advantage of the spectroscopic properties of white microtiter plates (Optiplate-384, PerkinElmer, #6007290), as indicated by Zuck et al.. Nitrocefin is chromogenic substrate for beta-lactamases with λmax = 395 nm (yellow). Upon hydrolysis by OXA-48, nitrocefin yields (2R)-2-[(R)-carboxy[2-(thiophen-2-yl)acetamido]methyl]-5-[(E)-2-(2,4-dinitrophenyl)ethenyl]-3,6-dihydro-2H-1,3-thiazine-4-carboxylic acid, with increased absorbance properties at λmax = 495 nm. Spectroscopic features of the reaction product are exploited to quench the plate intrinsic fluorescence by absorbing the plate’s emission light, which can be monitored by exciting the reaction at 485 nm and recording the emission at 520 nm. Therefore, the primary assay for HTS was an ON-assay, in which compounds targeting OXA-48 were predicted to elicit an increase of the fluorescence signal.
The primary assay was performed in reaction buffer (20 mM Hepes pH 8.0, 12.5 mM NaCl, 0.005% BSA, 0.0005% Brij-35) in the presence of 0.0014 ng/µL OXA-48 and 25 µM nitrocefin in a final volume of 20 µL/well in 384 MTP format. […]

E. coli ATCC25922 = assay: MIC by broth microdilution, antibiotic-sensitive strain; type: cell-based; conditions: Escherichia coli, no β-lactam, BLI tested at 32 µg/mL, read-out: MIC, BLI alone
Text: (§1) To evaluate the capability of restoring β-lactam susceptibility, the two most promising representatives of SC_2 (ID3) and SC_7 (ID2) were screened alone and in combination with ampicillin (AMP) and IMP against sensitive and resistant Gram-negative bacteria. Avibactam and tazobactam were also included in the MIC characterization as BLI reference compounds. Specifically, we used E. coli ATCC25922 as antibiotic-sensitive strain, while E. coli ATCC BAA-2523 and K. pneumoniae ATCC BAA-2524 as β-lactam-resistant bacteria, producing OXA-48 carbapenemase.
(§2) Test compounds and tazobactam were tested at 32 µg/mL, while avibactam was applied at 4 µg/mL. […] Both antibiotics were selected for the combination study as they can be hydrolyzed by the target OXA-48 enzyme.
(§3) MIC values were determined by the broth dilution method and interpreted using published guidelines described by Clinical and Laboratory Standards Institute (CLSI).
(§4) All BLIs were dissolved in 100% DMSO and they were tested at a fixed concentration of 32 µg/mL and 1% of DMSO final concentration. Avibactam was used as reference β-lactamase inhibitor. All antimicrobials were prepared in line with CLSI susceptibility testing standards. AMP (USP # 1033000; batch no. K1M493) was dissolved at 5.12 mg/mL, IMP (USP # 1337809; batch no. R038R0) and avibactam (Biochem # NXL 104; batch no. 20180726) were dissolved at 1.28 mg/mL in the respective solvents recommended by CLSI (2). Solutions at 4X the final concentrations of the test range were made in Cation adjusted Mueller-Hinton broth (CA-MHB, BD # 212322; batch no. 6117994; Expiry date: 29.02.2020) by serial dilutions, and then diluted 2-fold with CA-MHB (for antimicrobials alone), or with the BLIs/avibactam (for combinations of new/reference inhibitors and antimicrobials). Moreover, all BLIs were tested alone at a fixed concentration of 32 μg/mL. The final concentration of DMSO in the test tubes was 1% for each different combination.
(§5) 50 μL of each well were then transferred from the masterblock into 96-well plates to whom were then added 50 μL of the final inoculum. MIC tests were performed by broth microdilution in line with CLSI susceptibility testing standards. Bacterial inocula were prepared at ca. 1 × 10^6 CFU/mL by diluting 100-fold a 0.5 McFarland suspension in CA-MHB with TES (TREK Diagnostic Systems, Product code: T3462; Batch: 356347; Expiry date: 12-Jun-2019). 50 μL of antibacterial solutions at 2 × the final concentrations were diluted 2-fold with 50 μL of inoculum to give a final inoculum of ca. 5 × 10^5 CFU/mL and desired test concentrations of antibacterial agents. Test plates were incubated according to CLSI guidelines and read visually. MIC values corresponded to the first well with no visible growth.

E. coli ATCC BAA-2523 = assay: MIC by broth microdilution, β-lactam-resistant strain producing OXA-48; type: cell-based, Escherichia coli; conditions: Escherichia coli, ATCCBAA2523, no β-lactam, BLI tested at 32 µg/mL, read-out: MIC, BLI alone
Text: as §1, §2, §3, §4, §5

[1] = tested on: K. pneumoniae ATCC BAA-2524; assay: as above; type: cell-based, Klebsiella pneumoniae; conditions: Klebsiella pneumoniae, ATCCBAA2524, no β-lactam, BLI tested at 32 µg/mL, read-out: MIC, BLI alone
Text: as §1, §2, §3, §4, §5

T1 sequence (Q6XEC0 23-265, looked up): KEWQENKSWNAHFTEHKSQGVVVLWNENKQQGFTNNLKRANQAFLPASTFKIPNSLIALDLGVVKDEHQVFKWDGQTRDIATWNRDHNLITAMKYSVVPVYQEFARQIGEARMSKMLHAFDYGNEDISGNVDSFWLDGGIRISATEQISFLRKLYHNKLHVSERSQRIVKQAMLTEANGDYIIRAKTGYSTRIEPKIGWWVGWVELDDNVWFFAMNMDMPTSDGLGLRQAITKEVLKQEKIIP

SMILES: O=C(O)c1ccc(/C=N/n2c(S)nnc2-c2ccc(Cl)cc2)cc1 [ID3]
- AC50 (OXA-48): 723 nM and 720 nM
- MIC (E. coli ATCC25922): > 32 µg/mL
- MIC (E. coli ATCC BAA-2523): > 32 µg/mL
- MIC [1]: > 32 µg/mL
